Earlier results in patent US20070196413A1, “Surfactant enhanced quick release pesticide granules” (priority 2003, published 2007).
Like-named read-outs stand apart in the source and are kept apart here.

In the case of `CNC(=O)CSP(=S)(OC)OC` [Cygon, dimethoate], the “Time to lose 50 percent of pest control power” value (mixed in water of pH 9) is listed as 48 min and the “Time to lose 50 percent of pest control power” value (pH of 6) is listed as 720 min.
